Data on 35 molecules can be found in ChEMBL document CHEMBL4007488, “Amphiphilic Indole Derivatives as Antimycobacterial Agents: Structure-Activity Relationships and Membrane Targeting Properties” (J Med Chem, 2017).

pIC50: −log10 of the molar value. Converted amounts (≈) assume the structure as drawn. The source made the active and inactive calls.

Series [1] deals with Lipid bilayer. In words: Binding affinity to DMPG vesicles assessed as change in enthalpy by differential scanning calorimetric analysis.
Series [2] has as its system Mycobacterium tuberculosis. In words: Antimycobacterial activity against Mycobacterium tuberculosis H37Rv ATCC 27294 assessed as growth inhibition at 10 uM after 5 days relative to control. The format is functional. The settings on record: H37Rv ATCC 27294, 120 h, read-out: GI.
Series [3] concerns Lipid bilayer. Description: Binding affinity to DMPG vesicles assessed as increase in width at 1/2 height of endotherm of compound containing vesicles by differential scanning calorimetric analysis. A general note: In DSC, transitions show as peaks or steps in heat flow.
Series [4] deals with Lipid bilayer. Description: Binding affinity to DMPG vesicles assessed as melting transition temperature by differential scanning calorimetric analysis (reference value: 21.09 to 23.32 degC).
The subject of series [5] is Mycolicibacterium smegmatis. Description: Antimycobacterial activity against Mycobacterium smegmatis MC2 155 ATCC 700084 assessed as growth inhibition at 10 uM after 5 days relative to control. The format is functional. The settings on record: MC2 155 ATCC 700084, 120 h, read-out: GI.
The next series has as its system HepG2. In words: Cytotoxicity against human HepG2 cells assessed as reduction in cell viability after 48 hrs by MTT assay. The format is cell-based. The settings on record: HepG2, 48 h. A general note: Formazan colour is commonly taken as a measure of viable cells.
The nature of series [6]: Selectivity index, ratio of IC50 for African green monkey Vero E6 cells to MIC50 for Mycobacterium tuberculosis H37Rv ATCC 27294. The settings on record: read-out: Selectivity Index. The format is toxicity, Vero C1008.
For series [7], the system named is Mycobacterium tuberculosis. Description: Antimycobacterial activity against Mycobacterium tuberculosis H37Rv ATCC 27294 after 5 days by broth dilution method. The series is classed as functional. The settings on record: H37Rv ATCC 27294, 120 h.
For a further series, the system named is Vero C1008. Description: Cytotoxicity against African green monkey Vero E6 cells assessed as reduction in cell viability after 48 hrs by 96 aqueous one-based assay. The settings on record: Chlorocebus sabaeus, Vero C1008, 48 h.
A short description of series [8]: Selectivity index, ratio of IC50 for human HepG2 cells to MIC50 for Mycobacterium tuberculosis H37Rv ATCC 27294. The format is toxicity. The settings on record: read-out: Selectivity Index.
The nature of series [9]: Aqueous solubility of compound at pH 7.4 at 25 degC after 24 hrs. The format is physicochemical. The settings on record: buffer.
Series [10] can be described thus: Half life in rat liver microsomes preincubated for 5 mins followed by NADPH addition measured up to 45 mins by LC-MS analysis. The series is classed as ADME, microsome. (In general: Liver microsomes are vesicles of endoplasmic reticulum, rich in cytochrome P450 enzymes.)

`CCCCCCCCCCn1cc(CN2CCCCCC2)c2c(F)cccc21`: the deltaH in the series on Lipid bilayer [1] was -0.963 kcal/mol. Moreover, the inhibition of growth at 10 µM in [2] and in series [5] was 99% each time. Further, the outcome with Lipid bilayer [3] was inactive. In addition, the Tm with Lipid bilayer [4] is 18.6 °C.
Usually pIC50 stands for the negative decadic logarithm of the IC50, by convention in mol/L. The term MIC50 denotes an inhibitory concentration at the 50% level, which refers to growth in some studies and to a panel of isolates in others. What is called MIC90 is an inhibitory concentration at the 90% level, which refers to growth in some studies and to a panel of isolates in others. For the molecule `CCCCCCCCn1cc(CN2CCC3(CC2)OCCO3)c2c(F)cccc21`, the figures for the negative-log IC50 (pIC50) in the series with HepG2 and with Vero C1008 were 4.66 and 4.41, respectively. Further, in the series with Lipid bilayer [1], the deltaH was -1.7 kcal/mol. Besides, the values for the selectivity ratio in series [6] and in series [8] were 7.3 and 4.1, respectively. The inhibition of growth at 10 µM in series [2] and in series [5] was 99% in each case. In series [7], this molecule gave an MIC50 of 5.3 µM (≈ 2.13 µg/mL). In addition, in series [7], the MIC90 came to 10.6 µM (≈ 4.27 µg/mL). The Tm in the series with Lipid bilayer [4] is 19.4 °C.
The term solubility denotes the concentration that dissolves in the medium under given conditions. `CC(C)=CCC/C(C)=C/Cn1cc(CN2CCCCC2)c2cc(F)ccc21` displayed a solubility at 24 h in series [9] of 25 µM (≈ 9.21 µg/mL). For the same molecule, the selectivity ratio in series [6] came out at 6. Moreover, the inhibition of growth at 10 µM in series [2] and in series [5] was 99% in each case.
Consider `CCCCCCCCCCCCn1cc(CN2CCCCCC2)c2c(F)cccc21`, for which, in the series on Lipid bilayer [1], the deltaH was -0.44 kcal/mol. Also, the inhibition of growth at 10 µM in series [2] and in series [5] was 99% in each case. Also, in the series on Lipid bilayer [3], the result was inactive. The Tm in the series with Lipid bilayer [4] was determined as 18.8 °C.
On to `CCCCn1cc(CN2CCCCCC2)c2c(F)cccc21`, for which the deltaH with Lipid bilayer [1] was -3.3 kcal/mol. The inhibition of growth at 10 µM in series [2] and in series [5] was 99% each time. In addition, the Tm in the series with Lipid bilayer [4] was 19 °C.
Take `CCCCCCCCn1cc(C(=O)N2CCCCCC2)c2cc(F)ccc21`: the deltaH in the series with Lipid bilayer [1] is -2.52 kcal/mol. Further, the inhibition of growth at 10 µM in series [2] and in series [5] was 99% throughout. Moreover, the outcome in the series with Lipid bilayer [3] was inactive. The Tm with Lipid bilayer [4] turned out to be 18.9 °C.
Consider `CC(C)=CCC/C(C)=C/Cn1cc(CN2CCC3(CC2)OCCO3)c2cc(F)ccc21`, for which the inhibition of growth at 10 µM in series [2] and in series [5] was 99% throughout.
Consider `CCCCCCn1cc(CN2CCCCCC2)c2c(F)cccc21`, for which the deltaH in the series with Lipid bilayer [1] was -1.52 kcal/mol. Moreover, the inhibition of growth at 10 µM in series [2] and in series [5] was 99% in each case. Further, in the series on Lipid bilayer [4], the Tm came out at 19 °C.
In the case of `O=C(Cn1cc(CN2CCCCC2)c2cc(F)ccc21)NC1CC1`, the inhibition of growth at 10 µM in series [2] and in [5] was 99% in each case.
Regarding `CCn1cc(CN2CCCCCC2)c2c(F)cccc21`, the deltaH in the series with Lipid bilayer [1] was -3.44 kcal/mol. In addition, the inhibition of growth at 10 µM in series [2] and in [5] was 99% in each case. The Tm in the series with Lipid bilayer [4] is 19.8 °C.
For `CC(C)=CCC/C(C)=C/Cn1cc(CN2CCS(=O)(=O)CC2)c2cc(F)ccc21`, the inhibition of growth at 10 µM in [2] and in series [5] was 99% in each case.
Turning to `CCCCCCCCn1cc(CN2CCC3(CC2)OCCO3)c2ccc(F)cc21`, the negative-log IC50 (pIC50) with HepG2 is 4.59; with Vero C1008 it was 4.32. The deltaH in the series with Lipid bilayer [1] was -2.15 kcal/mol. The selectivity ratio in series [6] is 15.8; in series [8], 8.5. Besides, the inhibition of growth at 10 µM in [2] and in series [5] was 99% in each case. The molecule further came in with an MIC50 in [7] of 3 µM (≈ 1.21 µg/mL). The MIC90 in [7] was 6 µM (≈ 2.42 µg/mL). The Tm in the series with Lipid bilayer [4] was determined as 18.5 °C.
In the case of `CCCCCCCCn1cc(CN2CCCCCC2)c2cc(F)ccc21`, the inhibition of growth at 10 µM in [2] and in series [5] was 99% each time.
Turning to `CCCCCCCCn1cc(CN2CCCCC2)c2c(OC)cccc21`, the inhibition of growth at 10 µM in series [2] and in [5] was 99% each time.
With `CCCCCCCCn1cc(CN2CCCCCC2)c2cccc(F)c21`, the inhibition of growth at 10 µM in [2] and in series [5] was 99% throughout.
As for `CC(C)=CCC/C(C)=C/Cn1cc(CN2CCCCCC2)c2cc(F)ccc21`, the inhibition of growth at 10 µM in series [2] and in [5] was 99% each time.
In the case of `Fc1ccc2c(c1)c(CN1CCCCC1)cn2CCCc1ccccc1`, the inhibition of growth at 10 µM in series [2] and in series [5] was 99% each time.
For `CCCCCCCCn1cc(CN2CCN(C)CC2)c2cc(F)ccc21`, the inhibition of growth at 10 µM in series [2] and in series [5] was 99% throughout.
In the case of `CC(C)=CCC/C(C)=C/Cn1cc(C(=O)N2CCCCC2)c2cc(F)ccc21`, the inhibition of growth at 10 µM in series [2] and in series [5] was 99% each time.
As to `CC(C)=CCC/C(C)=C/Cn1cc(CN2CCN(C)CC2)c2cc(F)ccc21`, the inhibition of growth at 10 µM in series [2] and in series [5] was 99% each time.
`Fc1ccc2c(c1)c(CN1CCCCC1)cn2Cc1ccccc1`: the inhibition of growth at 10 µM in series [2] and in series [5] was 99% in each case.
For `CCCCCCCCn1cc(CN2CCCCC2)c2cccc(OC)c21`, the inhibition of growth at 10 µM in [2] and in series [5] was 99% each time.
Turning to `CCCCCCCCn1ccc2c(F)cccc21`, the deltaH in the series with Lipid bilayer [1] was -3.34 kcal/mol. For the same molecule, the inhibition of growth at 10 µM in [2] and in [5] was 99% throughout. For the same molecule, the result in the series on Lipid bilayer [3] was inactive. For the same molecule, in the series on Lipid bilayer [4], the Tm is 19.9 °C.
Turning to `CCCCCCCCn1cc(CN2CCCCC2)c2ccc(F)cc21`, the inhibition of growth at 10 µM in series [2] and in series [5] was 99% throughout.
For the molecule `CCCCCCCCn1cc(CN2CCC(C)CC2)c2cccc(F)c21`, the inhibition of growth at 10 µM in [2] and in series [5] was 99% in each case.
Take `Fc1ccc2[nH]cc(CN3CCCCC3)c2c1`: the inhibition of growth at 10 µM in [2] and in [5] was 99% in each case.
Take `CCCCCCCCn1cc(CNC23CC4CC(CC(C4)C2)C3)c2cccc(OC)c21`: the inhibition of growth at 10 µM in series [2] and in [5] was 99% in each case.
As to `CCCN(CC)Cc1cn(C/C=C(\C)CCC=C(C)C)c2ccc(F)cc12`, the inhibition of growth at 10 µM in series [2] and in series [5] was 99% in each case.
Regarding `CCCCCCCCn1ccc2cc(F)ccc21`, the inhibition of growth at 10 µM in [2] and in [5] was 99% in each case.
Regarding `Fc1cccc2[nH]cc(CN3CCCCCC3)c12`, in the series on Lipid bilayer [1], the deltaH was -4.83 kcal/mol. For the same molecule, the inhibition of growth at 10 µM in [2] and in [5] was 99% in each case. Moreover, the Tm in the series on Lipid bilayer [4] was 20.4 °C.
For the molecule `CC(C)=CCC/C(C)=C/Cn1cc(CN2CCOCC2)c2cc(F)ccc21`, the inhibition of growth at 10 µM in series [2] and in [5] was 99% each time.
Consider `CCCCCCCCn1cc(CN2CCCCCC2)c2ccc(OC)cc21`, for which the inhibition of growth at 10 µM in [2] and in [5] was 99% in each case.
The half-life is the time needed for the level to fall by half in the phase considered. In series [9], `CCCCCCCCn1cc(CNC23CC4CC(CC(C4)C2)C3)c2c(F)cccc21` gave a solubility at 24 h of 10.2 µM (≈ 4.19 µg/mL). The results for the pIC50 with HepG2 and with Vero C1008 were 4.89 and 4.80, respectively. Also, the values for the selectivity ratio in [6] and in [8] were 8 and 6.5, respectively. The inhibition of growth at 10 µM in series [2] and in [5] was 99% throughout. The molecule also displayed an MIC50 in series [7] of 2 µM (≈ 0.821 µg/mL). The MIC90 in [7] stood at 3 µM (≈ 1.23 µg/mL). In series [10], this molecule showed a half-life of 15.9 min.
As to `CCCCCCCCn1cc(CN2CCC(C)CC2)c2c(OC)cccc21`, the inhibition of growth at 10 µM in series [2] and in [5] was 99% in each case.
Consider `CCCCCCCCn1cc(CNCCC)c2cc(F)ccc21`, for which the inhibition of growth at 10 µM in series [2] and in [5] was 99% each time.
